The values that follow come from US6958345B2, “2-hydroxymethylcyclopropylidene methylpurines and -pyrimidines as antiviral agents” (The Regents of the University of Michigan, priority 1997, dated 2005).

Where two headings read alike, the source gives them in different places.

Data set [1] has as its system CEM cells. Kind of data set: Cytotoxicity in growing CEM cells, microscopic inspection. The data set is classed as cell-based. Here is the method: (§1) Cells and viruses. The routine growth and passage of KB cells was performed in monolayer cultures using minimal essential medium (MEM) with either Hanks salts [MEM(H)] or Earle salts [MEM(E)] supplemented with 10% calf serum. The sodium bicarbonate concentration was varied to meet the buffering capacity required. Cultures of diploid human foreskin fibroblasts (HFF) or MRC-5 cells were grown in medium consisting of MEM(E) with 10% fetal bovine serum. Cells were passaged at 1:2 to 1:10 dilutions according to conventional procedures by using 0.05% trypsin plus 0.02% EDTA in a HEPES buffered salt solution (HBS) (Shipman, C., Jr., Proc. Soc. Exp. Biol. 130:305-310 (1969)) as described previously. Turk, S. R., et al., Antimicrob. Agents Chemother. 31:544-550 (1987). HFF and MRC-5 cells were passaged only at 1:2 dilutions. CEM cells were maintained in suspension culture as detailed previously. Kucera, L. S., et al., AIDS Res. Human Retroviruses 9:307-314 (1993).
(§2) Cytotoxicity assays. Two different assays were used to explore cytotoxicity of selected compounds as we have detailed previously. (i) Cytotoxicity produced in stationary HFF cells and in growing CEM cells was determined by microscopic inspection of cells used in plaque and RT assays which were not affected by the virus. Turk, S. R., et al., Antimicrob. Agents Chemother. 31:544-550 (1987). (ii) The effect of compounds during two population doublings of KB cells was determined by crystal violet staining and spectrophotometric quantitation of dye eluted from stained cells. Prichard, M. N., et al., Antimicrob. Agents Chemother. 35:1060-1065 (1991).
(§3) Data Analysis. Dose-response relationships were constructed by linearly regressing the percent inhibition of parameters derived in the preceding sections against log drug concentrations. Fifty-percent inhibitory (IC50) concentrations were calculated from the regression lines. Samples containing positive controls (acyclovir for HSV-1, ganciclovir for HCMV, and 2-acetylpyridine thiosemicarbazone for cytotoxicity) were used in all assays.

For data set [2], the system named is HFF cells. Kind of data set: Cytotoxicity in stationary HFF cells, microscopic inspection. Format: cell-based, human. Here is the method:
as §1, §2, §3

The test system of data set [3] is HSV-1. Briefly: HSV-1 ELISA in BSC-1 cells. The data set is classed as cell-based, herpes simplex 1 (HSV-1). Particulars: for IC50: ELISA. Here is the method:
(§4) Virological procedures. Stock HCMV was prepared by infecting HFF cells at a multiplicity of infection (m.o.i.) of <0.01 plaque-forming units (p.f.u.) per cell. Cell growth medium was changed every four days until cytopathology was evident in all cells (approximately 21 days). Supernatant fluids were retained as the virus stock. High titer HSV-1 stocks were prepared by infecting KB cells at an m.o.i. of <0.1 as detailed previously. Turk, S. R., et al., Antimicrob. Agents Chemother. 31:544-550 (1987). Virus titers were determined using monolayer cultures of HFF cells for HCMV and monolayer cultures of BSC-1 cells for HSV-1 as described earlier. Prichard, M. N., et al., J. Virol. Methods 28:101-106 (1990). Briefly, HFF or BSC-1 cells were planted as described above in 96-well cluster dishes and incubated overnight at 37° C. in a humidified 3% CO297% air atmosphere. The next day cultures were inoculated with HCMV or HSV-1 and serially diluted 1:3 across the remaining eleven columns of the 96-well plate. Cultures were incubated at 37° C. for 2 hr to permit virus adsorption and then virus inoculum was replaced with 0.2 mL of fresh medium. Cultures were incubated for seven days for HCMV, two or three days for HSV-1, medium was removed, and the cell sheets were stained with 0.1% crystal violet in 20% methanol. Plaques were enumerated under 20-fold magnification in wells having the dilution which gave 5 to 20 plaques per well. Virus titers were calculated according to the following Formula: Titer (p.f.u./mL)=number of plaques×5×3^n; where n represents the nth dilution of the virus used to infect the well in which plaques were enumerated.
(b) HSV-1. An enzyme-linked immunosorbent assay (ELISA) was employed to detect HSV-1. 96-well cluster dishes were planted with BSC-1 cells at 10,000 cells per well, in a total volume of 200 μL per well of MEM(E) plus 10% calf serum. After overnight incubation at 37° C., drug and HSV-1 was added at the rate of 100 PFU/well. ELISA plates were blocked with 200 μL per well of 10% calf serum and 0.05% tween in HBS. After incubation for 30 minutes, the blocking agent was rinsed two times with HBS-T. A 1:400 dilution of AP conjugated rabbit anti-HSV-1 antibody in HBS-F was added. Plates were sealed with adhesive sheet, and incubated on rocker for one hour at 37° C. Plates were developed in the dark with 100 μL per well of substrate solution containing p-nitrophenyl phosphate. Plates were read at […]. Drug effects were calculated as a percentage of the reduction in virus in the presence of each drug concentration compared to the titer obtained in the absence of drug. Acyclovir was used as a positive control in all experiments.
as §3

The test system of data set [4] is KB cells. Kind of data set: Cytotoxicity in KB cells, growth over two population doublings. Format: cell-based. Here is the method:
as §1, §2, §3

For data set [5], the system named is HIV-1. Kind of data set: HIV-1 reverse transcriptase assay in infected CEM cells. Format: cell-based, strain IIIB of HIV-1. Here is the method:
(d) HIV-1. Reverse transcriptase (RT) was employed as a marker for HIV-1. This assay measured the presence of HIV in supernatants of CEM cells infected with strain IIIB of HIV-1 by the amount of RT activity. Cells were grown, infected, and incubated in the presence of seven concentrations (one-half log10 dilutions) beginning at 1 or 100 μM of compounds to be assayed. Procedures and the RT assay were performed as detailed previously. Kucera, L. S., et al., AIDS Res. Human Retroviruses 9:307-314 (1993); White, E. L., et al., Antiviral Res. 16:257-266 (1991).

The subject of data set [6] is HCMV. Kind of data set: HCMV plaque reduction assay in HFF cells. Particulars: for IC50: HFF cells, plaque reduction; for activity against HCMV (in words): racemic analogues. The data set is classed as cell-based, Human CMV (HCMV). How it is done:
as §1, §4
(a) HCMV. The effect of compounds on the replication of HCMV has been measured using a plaque reduction assay. HFF cells in 24-well cluster dishes were infected with approximately 100 p.f.u. of HCMV per cm^2 cell sheet using the procedures detailed above. Following virus adsorption, compounds dissolved in growth medium were added to duplicate wells in three to six selected concentrations. Following incubation at 37° C. for 7 to 10 days, cell sheets were fixed, stained with crystal violet and microscopic plaques enumerated as described above. Drug effects were calculated as a percentage of reduction in number of plaques in the presence of each drug concentration compared to the number observed in the absence of drug. Ganciclovir (DHPG) was used as a positive control in all experiments.
as §3

[7] abbreviates: Example 26, high multiplicity of infection (moi), read-out: HIV-1 IC50, reverse transcriptase assay.
[8] abbreviates: Example 26, listed as S-1 (B = 2-amino-6-methoxy-purine), Example 22.
Where [9] appears, read: KB cell growth, read-out: Cytotoxicity IC50 KB (growth).
The mark [10] stands for this setting: reverse transcriptase assay, CEM cells, low moi (footnote c of the 5th table), read-out: HIV-1, IC50.
The mark [11] stands for this setting: Example 26, listed as R-1 (B = 2-amino-6-methoxy-purine), Example 22.

As a reminder, the IC50 is the midpoint of a concentration-inhibition curve.

For the compound `Nc1nc(N)c2ncn(C=C3CC3CO)c2n1` (stereo not shown) [S-1 (B = 2,6-diaminopurine), Example 22], the IC50 in data set [1] is above 100 µM; in data set [2], 21 µM; in data set [3] (Example 26) it was above 100 µM; in data set [4] it was above 100 µM; in data set [5] (setting [7]), above 100 µM; in data set [6] (Example 26), 21 µM.
For the compound `COc1nc(N)nc2c1ncn2C=C1CC1CO` (stereo not shown) [listing 1 of 2 here], the IC50 in data set [3] (setting [8]) was found to be 20 µM; in data set [5] (Example 26, high multiplicity of infection (moi), listed as S-1 (B = 2-amino-6-methoxy-purine), Example 22, read-out: HIV-1 IC50, reverse transcriptase assay), 42 µM; in data set [6] (setting [8]), 2.5 µM.
As for `COC(=O)[C@H](C)NP(=O)(OCC1CC1=Cn1cnc2c(N)ncnc21)Oc1ccccc1` (stereo partly drawn) [4 (B = adenine), Example 14, Methyl Phenylphosphoro-L-alaninate of anti-N^9-(2-Hydroxymethylcyclopropylidenemethyl)adenine], the IC50 is 66 µM in data set [1] (growing CEM cells, visual, read-out: Cytotoxicity IC50 CEM (visual)); 65 µM in data set [3] (BSC-1 cells); 50 µM in data set [4] (setting [9]); 1.6 µM in data set [5] (setting [10]); 21 µM in data set [6].
As to `Nc1nc2c(ncn2C=C2CC2CO)c(=O)[nH]1` (stereo not shown) [R-1 (B = guanine), Example 22], the IC50 in data set [1], in data set [2], in data set [3] (Example 26), in data set [4], in data set [5] (setting [7]) and in data set [6] (Example 26) was above 100 µM in each case.
In the case of `Nc1nc(NC2CC2)c2ncn(C=C3CC3CO)c2n1` (stereo not shown) [S-1 (B = 2-aminopurine-6-cyclo-propylaminopurine), Example 2], the IC50 is above 100 µM in data set [1]; above 100 µM in data set [2]; 20 µM in data set [3] (Example 26); above 100 µM in data set [4]; 65 µM in data set [5] (setting [7]); 1.8 µM in data set [6] (Example 26).
For `[N-]=[N+]=Nc1nc(N)nc2c1ncn2C=C1CC1CO` (stereo not drawn) [syn-2-Amino-6-azido-N^9-(2-hydroxymethyl-cyclopropylidene-methyl)purine], the IC50 in data set [1] was above 100 µM; in data set [2] it was above 100 µM; in data set [3] (Example 26) it was above 100 µM; in data set [4], above 100 µM; in data set [5] (setting [7]) it was above 100 µM; in data set [6] (Example 26) it was 41 µM. Further, the “activity against HCMV (in words)” value in data set [6] (Example 26) was “good activity”.
Take `COc1nc(N)nc2c1ncn2C=C1CC1CO` (stereo not drawn) [syn-2-Amino-6-methoxy-N^9-(2-hydroxymethyl-cyclopropylidenemethyl)purine]: in data set [3] (Example 26), the “activity against HSV-1 (in words)” value is listed as “significant activity” and the IC50 came out at 33 µM. In addition, the IC50 in data set [5] (setting [7]) is above 100 µM. In addition, in data set [6] (Example 26), the IC50 came to 3.1 µM and the “activity against HCMV (in words)” value is on record as “good activity”.
As for `Nc1nc(N)c2ncn(C=C3CC3CO)c2n1` (stereo not shown) [R-1 (B = 2,6-diaminopurine), Example 22], the IC50 in data set [1], in data set [2], in data set [3] (Example 26), in data set [4], in data set [5] (setting [7]) and in data set [6] (Example 26) was above 100 µM each time.
As for `Nc1nc(Cl)c2ncn(C=C3CC3CO)c2n1` (stereo not shown) [R-1 (B = 2-amino-6-chloropurine), Example 22], the IC50 in data set [1] is above 100 µM; in data set [2], 32 µM; in data set [3] (Example 26), above 100 µM; in data set [4] it was above 100 µM; in data set [5] (setting [7]) it was above 100 µM; in data set [6] (Example 26) it was 30 µM.
On to `Nc1nc(NC2CC2)c2ncn(C=C3CC3CO)c2n1` (stereo not shown) [R-1 (B = 2-aminopurine-6-cyclo-propylaminopurine), Example 2], for which the IC50 in data set [1], in data set [2], in data set [3] (Example 26), in data set [4], in data set [5] (setting [7]) and in data set [6] (Example 26) was above 100 µM in each case.
Regarding `Nc1nc2c(ncn2C=C2CC2CO)c(=O)[nH]1` (stereo not shown) [S-1 (B = guanine), Example 22], the IC50 in data set [1] is above 100 µM; in data set [2] it was above 100 µM; in data set [3] (Example 26) it was 45 µM; in data set [4] it was above 100 µM; in data set [5] (setting [7]), above 100 µM; in data set [6] (Example 26), 2.5 µM.
Regarding `COc1nc(N)nc2c1ncn2C=C1CC1CO` (stereo not shown) [listing 2 of 2 here], the IC50 in data set [1] was above 100 µM; in data set [2] it was above 100 µM; in data set [3] (setting [11]), above 100 µM; in data set [4], above 100 µM; in data set [5] (Example 26, high multiplicity of infection (moi), listed as R-1 (B = 2-amino-6-methoxy-purine), Example 22, read-out: HIV-1 IC50, reverse transcriptase assay), above 100 µM; in data set [6] (setting [11]), above 100 µM.
On to `Nc1nc(Cl)c2ncn(C=C3CC3CO)c2n1` (stereo not shown) [S-1 (B = 2-amino-6-chloropurine), Example 22], for which the IC50 in data set [1] was above 100 µM; in data set [2] it was above 100 µM; in data set [3] (Example 26), 45 µM; in data set [4], above 100 µM; in data set [5] (setting [7]), above 100 µM; in data set [6] (Example 26), 1.8 µM.
Turning to `COC(=O)[C@H](C)NP(=O)(OCC1CC1=Cn1cnc2c(N)nc(N)nc21)Oc1ccccc1` (stereo partly drawn) [3 (B = 2,6-diaminopurine), Example 15, Methyl Phenylphosphoro-L-alaninate of syn-2,6-diamino-N^9-(2-Hydroxycyclopropylidene-methyl)purine], the IC50 in data set [2] (stationary HFF cells, visual, read-out: Cytotoxicity IC50 HFF (visual)) is above 100 µM; in data set [3] (BSC-1 cells), 50 µM; in data set [4] (setting [9]), 40 µM; in data set [5] (setting [10]), 0.26 µM; in data set [6] it was 4 µM.
